Laboratory results as given in BindingDB's records for doi:10.1021/jm0101390 (Harvard Medical School, 2001).

What follows are compounds tested against Aldehyde dehydrogenase, mitochondrial (Mesocricetus auratus) (assay: Inhibition of hamster liver aldehyde dehydrogenase ALDH-2).

**Q.** Which IC50 does the source give for CCCCCCOc1ccc2c(=O)c(-c3ccc(O)cc3)coc2c1 [7-Hexyloxy-3-(4-hydroxyphenyl)chromen-4-one] here?
**A.** Its IC50 is 1500 nM.

**Q.** C=CCCCCOc1ccc2c(=O)c(-c3ccc(O)cc3)coc2c1 [7-Hex-5-enyloxy-3-(4-hydroxy-phenyl)-chromen-4-one] was tested. Which IC50 did it give?
**A.** The IC50 was 150 nM.

**Q.** CCOC(=O)COc1ccc2c(=O)c(-c3ccc(O)cc3)coc2c1 [[3-(4-Hydroxy-phenyl)-4-oxo-4H-chromen-7-yloxy]-acetic acid ethyl ester] was tested. Which IC50 did it give?
**A.** Its IC50 is 130 nM.

**Q.** For O=c1c(-c2ccc(O)cc2)coc2cc(OCCCCCCCCCCCCO)ccc12 [7-(12-Hydroxy-dodecyloxy)-3-(4-hydroxy-phenyl)-chromen-4-one], which IC50 is on record?
**A.** The IC50 was 1700 nM.

**Q.** For O=C(O)COc1ccc2c(=O)c(-c3ccc(O)cc3)coc2c1 [2-(3-(4-hydroxyphenyl)-4-oxo-4H-chromen-7-yloxy)acetic acid], which IC50 is on record?
**A.** Its IC50 is 1200 nM.

**Q.** With O=C(O)CCCCCCCCCCCOc1ccc2c(=O)c(-c3ccc(O)cc3)coc2c1 [12-(3-(4-hydroxyphenyl)-4-oxo-4H-chromen-7-yloxy)dodecanoic acid] as the compound, how does the IC50 read?
**A.** Its IC50 is 130 nM.

**Q.** With O=C(O)CCCCCCOc1ccc2c(=O)c(-c3ccc(O)cc3)coc2c1 [7-[3-(4-Hydroxy-phenyl)-4-oxo-4H-chromen-7-yloxy]-heptanoic acid] as the compound, how does the IC50 read?
**A.** The IC50 was 50 nM.

**Q.** CCOC(=O)CCCCCOc1ccc2c(=O)c(-c3ccc(O)cc3)coc2c1 [6-[3-(4-Hydroxy-phenyl)-4-oxo-4H-chromen-7-yloxy]-hexanoic acid ethyl ester] was tested. Which IC50 did it give?
**A.** Its IC50 is 280 nM.

**Q.** For CCOC(=O)CCCCOc1ccc2c(=O)c(-c3ccc(O)cc3)coc2c1 [5-[3-(4-Hydroxy-phenyl)-4-oxo-4H-chromen-7-yloxy]-pentanoic acid ethyl ester], which IC50 is on record?
**A.** Its IC50 is 240 nM.

**Q.** O=c1c(-c2ccc(O)cc2)coc2cc(OCCCCCCO)ccc12 [7-(6-Hydroxy-hexyloxy)-3-(4-hydroxy-phenyl)-chromen-4-one] was tested. Which IC50 did it give?
**A.** The IC50 was 120 nM.

**Q.** Which IC50 does the source give for O=C(O)CCCCCCCCCOc1ccc2c(=O)c(-c3ccc(O)cc3)coc2c1 [10-(3-(4-hydroxyphenyl)-4-oxo-4H-chromen-7-yloxy)decanoic acid] here?
**A.** Its IC50 is 50 nM.

**Q.** With CC(C)Oc1ccc2c(=O)c(-c3ccc(O)cc3)coc2c1 [3-(4-Hydroxy-phenyl)-7-isopropoxy-chromen-4-one] as the compound, how does the IC50 read?
**A.** The IC50 was 80 nM.

**Q.** How did the IC50 turn out when CC1=C(c2ccccc2)C(=O)OC2CC(Cl)CCC12 (configuration not stated) [7-Chloro-4-methyl-3-phenyl-4a,5,6,7,8,8a-hexahydro-chromen-2-one] was run?
**A.** Its IC50 is 150 nM.

**Q.** Which IC50 does the source give for O=c1c(-c2ccc(O)cc2)coc2cc(OCCOCCOCCO)ccc12 [7-(2-(2-(2-hydroxyethoxy)ethoxy)ethoxy)-3-(4-hydroxyphenyl)-4H-chromen-4-one] here?
**A.** The IC50 was 40 nM.

**Q.** For CCCCC(Oc1ccc2c(=O)c(-c3ccc(O)cc3)coc2c1)C(=O)OCC (configuration not stated) [2-[3-(4-Hydroxy-phenyl)-4-oxo-4H-chromen-7-yloxy]-hexanoic acid ethyl ester], which IC50 is on record?
**A.** Its IC50 is 4500 nM.

**Q.** CCCCCCCCCCCCOc1ccc2c(=O)c(-c3ccc(O)cc3)coc2c1 [7-(dodecyloxy)-3-(4-hydroxyphenyl)-4H-chromen-4-one] was tested. Which IC50 did it give?
**A.** The IC50 was > 9000 nM.

**Q.** CCCCCCC(Oc1ccc2c(=O)c(-c3ccc(O)cc3)coc2c1)C(=O)O (configuration not stated) [2-[3-(4-Hydroxy-phenyl)-4-oxo-4H-chromen-7-yloxy]-octanoic acid] was tested. Which IC50 did it give?
**A.** Its IC50 is 2000 nM.

**Q.** O=c1c(-c2ccc(O)cc2)coc2cc(OCCCCCCCCCO)ccc12 [7-(9-Hydroxy-nonyloxy)-3-(4-hydroxy-phenyl)-chromen-4-one] was tested. Which IC50 did it give?
**A.** The IC50 was 700 nM.

**Q.** CC(Oc1ccc2c(=O)c(-c3ccc(O)cc3)coc2c1)C(=O)O (configuration not stated) [2-[3-(4-Hydroxy-phenyl)-4-oxo-4H-chromen-7-yloxy]-propionic acid] was tested. Which IC50 did it give?
**A.** Its IC50 is 2500 nM.

**Q.** How did the IC50 turn out when C=CCOc1ccc2c(=O)c(-c3ccc(O)cc3)coc2c1 [7-Allyloxy-3-(4-hydroxy-phenyl)-chromen-4-one] was run?
**A.** Its IC50 is 180 nM.

**Q.** For O=C(O)CCCCCCCOc1ccc2c(=O)c(-c3ccc(O)cc3)coc2c1 [8-(3-(4-hydroxyphenyl)-4-oxo-4H-chromen-7-yloxy)octanoic acid], which IC50 is on record?
**A.** Its IC50 is 40 nM.

**Q.** Which IC50 does the source give for CCCCCCC(Oc1ccc2c(=O)c(-c3ccc(O)cc3)coc2c1)C(=O)OCC (configuration not stated) [2-[3-(4-Hydroxy-phenyl)-4-oxo-4H-chromen-7-yloxy]-octanoic acid ethyl ester] here?
**A.** The IC50 was 7200 nM.

**Q.** How did the IC50 turn out when NCCCCCCOc1ccc2c(=O)c(-c3ccc(O)cc3)coc2c1 [7-(6-Amino-hexyloxy)-3-(4-hydroxy-phenyl)-chromen-4-one] was run?
**A.** Its IC50 is 100 nM.

**Q.** Which IC50 does the source give for NCCCCOc1ccc2c(=O)c(-c3ccc(O)cc3)coc2c1 [7-(4-Amino-butoxy)-3-(4-hydroxy-phenyl)-chromen-4-one] here?
**A.** Its IC50 is 250 nM.

**Q.** How did the IC50 turn out when CCOc1ccc2c(=O)c(-c3ccc(O)cc3)coc2c1 [7-Ethoxy-3-(4-hydroxy-phenyl)-chromen-4-one] was run?
**A.** Its IC50 is 80 nM.

**Q.** How did the IC50 turn out when O=C(O)CCCCOc1ccc2c(=O)c(-c3ccc(O)cc3)coc2c1 [5-[3-(4-Hydroxy-phenyl)-4-oxo-4H-chromen-7-yloxy]-pentanoic acid] was run?
**A.** Its IC50 is 100 nM.

**Q.** With O=C(O)CCCCCCCCCCCCCCCOc1ccc2c(=O)c(-c3ccc(O)cc3)coc2c1 [16-[3-(4-Hydroxy-phenyl)-4-oxo-4H-chromen-7-yloxy]-hexadecanoic acid] as the compound, how does the IC50 read?
**A.** Its IC50 is > 9000 nM.
